Columns and labels:
[1] = system: Echinochloa oryzoides (Ard.) Fritsch.; assay: Preemergence weed control under flooded paddy conditions, ECHORC (Watergrass (Calif.)); assay type: in vivo; conditions: preemergence, flooded paddy, rated three to four weeks after treatment
[2] = system: Monochoria vaginalis, Presl.; assay: Preemergence weed control under flooded paddy conditions, MOOVA (Monochoria); assay type: in vivo; conditions: preemergence, flooded paddy, rated three to four weeks after treatment
[3] = system: Sagittaria pygmaea, L.; assay: Preemergence weed control under flooded paddy conditions, SAGPY (Arrowhead (Pygmaea)); assay type: in vivo; conditions: preemergence, flooded paddy, rated three to four weeks after treatment
[4] = system: Cyperus iria; assay: Preemergence weed control under flooded paddy conditions, CYPIR (Rice Flatsedge); assay type: in vivo; conditions: preemergence, flooded paddy, rated three to four weeks after treatment
[5] = system: Oryza sativa, (L.) Tebonnet; assay: Rice tolerance to post-transplant applications under flooded paddy conditions (Example 187), ORYSAT (Rice, Tebonnet); conditions: rated three to four weeks after treatment
[6] = system: Cyperus serotinus, Rottb.; assay: Preemergence weed control under flooded paddy conditions, CYPSE (Flatsedge); assay type: in vivo; conditions: preemergence, rated three to four weeks after treatment

Row | Compound | ECHORC herbicidal effect rating ([1]; Rate 0.0320 kg/ha) | ECHORC herbicidal effect rating ([1]; Rate 0.0620 kg/ha) | ECHORC herbicidal effect rating ([1]; Rate 0.1250 kg/ha) | ECHORC herbicidal effect rating ([1]; Rate 0.2500 kg/ha) | MOOVA herbicidal effect rating ([2]; Rate 0.0320 kg/ha) | MOOVA herbicidal effect rating ([2]; Rate 0.0620 kg/ha) | MOOVA herbicidal effect rating ([2]; Rate 0.1250 kg/ha) | MOOVA herbicidal effect rating ([2]; Rate 0.2500 kg/ha) | SAGPY herbicidal effect rating ([3]; Rate 0.0320 kg/ha) | SAGPY herbicidal effect rating ([3]; Rate 0.0620 kg/ha) | SAGPY herbicidal effect rating ([3]; Rate 0.1250 kg/ha) | SAGPY herbicidal effect rating ([3]; Rate 0.2500 kg/ha) | CYPIR herbicidal effect rating ([4]; Rate 0.0320 kg/ha) | CYPIR herbicidal effect rating ([4]; Rate 0.0620 kg/ha) | CYPIR herbicidal effect rating ([4]; Rate 0.1250 kg/ha) | CYPIR herbicidal effect rating ([4]; Rate 0.2500 kg/ha) | ORYSAT herbicidal effect rating ([5]; Rate 0.0320 kg/ha) | ORYSAT herbicidal effect rating ([5]; Rate 0.0620 kg/ha) | ORYSAT herbicidal effect rating ([5]; Rate 0.1250 kg/ha) | ORYSAT herbicidal effect rating ([5]; Rate 0.2500 kg/ha) | further results
1 | COC(=O)COc1ccc(-c2nsc3ccc(-n4c(=O)cc(C(F)(F)F)n(C)c4=O)cc23)cc1 [Example 257, Acetic acid, {p-{5-[3,6-dihydro-3-methyl-2,6-dioxo-4-(trifluoromethyl)-1(2H)-pyrimidinyl)-1,2-benzisothiazol-3-yl}phenoxy}-, methyl ester] | 0.0 | 0.0 | 0.0 | 0.0 | 8.0 | 9.0 | 9.0 | 9.0 | 0.0 | 0.0 | 0.0 | 0.0 | 0.0 | 2.0 | 4.0 | 6.0 | 0.0 | 0.0 | 1.0 | 2.0 | CYPSE herbicidal effect rating ([6]; Rate 0.0320 kg/ha): 0.0; CYPSE herbicidal effect rating ([6]; Rate 0.0620 kg/ha): 0.0
2 | COC(=O)C(C)Oc1ccc(-c2nsc3ccc(-n4c(=O)cc(C(F)(F)F)n(C)c4=O)cc23)cc1 (stereo not shown) [Example 258, Propionic acid, 2-{p-{5-[3,6-dihydro-3-methyl-2,6-dioxo-4-(trifluoromethyl)-1(2H)-pyrimidinyl]-1,2-benzisothiazol-3-yl}phenoxy}-, methyl ester] | 0.0 | 0.0 | 0.0 | 0.0 | 9.0 | 9.0 | 9.0 | 9.0 | 0.0 | 0.0 | 0.0 | 0.0 | 0.0 | 2.0 | 7.0 | 8.0 | 2.0 | 2.0 | 3.0 | 4.0 | CYPSE herbicidal effect rating ([6]; Rate 0.0320 kg/ha): 0.0; CYPSE herbicidal effect rating ([6]; Rate 0.0620 kg/ha): 0.0; CYPSE herbicidal effect rating ([6]; Rate 0.1250 kg/ha): 0.0
3 | C#CCOC(=O)COc1ccc(-c2nsc3ccc(-n4c(=O)cc(C(F)(F)F)n(C)c4=O)cc23)cc1 [Example 259, Acetic acid, [p-{5-[3,6-dihydro-3-methyl-2,6-dioxo-4-(trifluoromethyl)-1(2H)-pyrimidinyl]-1,2-benzisothiazol-3-yl}phenoxy)-, 2-propynyl ester] | 0.0 | 0.0 | 0.0 | 2.0 | 6.0 | 9.0 | 9.0 | 9.0 | 0.0 | 0.0 | 0.0 | 0.0 | 0.0 | 2.0 | 4.0 | 4.0 | 1.0 | 1.0 | 2.0 | 3.0 | CYPSE herbicidal effect rating ([6]; Rate 0.0320 kg/ha): 0.0; CYPSE herbicidal effect rating ([6]; Rate 0.0620 kg/ha): 0.0
4 | Cn1c(C(F)(F)F)cc(=O)n(-c2ccc3snc(CCBr)c3c2)c1=O [Example 260, 2,4(1H,3H)-Pyrimidinedione, 3-[3-(2-bromoethyl)-1,2-benzisothiazol-5-yl]-1-methyl-6-(trifluoromethyl)-] | – | – | – | 0.0 | – | – | – | 0.0 | – | – | – | 0.0 | – | – | – | 0.0 | – | – | – | 0.0 | CYPSE herbicidal effect rating ([6]; Rate 0.2500 kg/ha): 0.0

Source: EP0908457B1, “3-(1,2-benzisothiazol- and isoxazol-5-Y1)-2,4(1H,3H)-pyrimidinedione or thione and 3-(1,2-benzisothiazol- and isoxazol-5-y1)-4(3H)-pyrimidinone or thione herbicidal agents” (BASF AKTIENGESELLSCHAFT, priority 1997, dated 1999)
